Assay results as given in the supplement of paper PMC10307832.

Key:
Experiment in all cases: relative viability (nuclei count vs DMSO), 5 days (fraction); higher = more cells survive
[1] = compound: CC1=NN=C(O1)C2=NN=C(C=C2)N3CCC(CC3)OC4=C(C=CC(=C4)F)Cl + Cc1cc(Nc2cc(N3CCN(C)CC3)nc(Sc3ccc(NC(=O)C4CC4)cc3)n2)n[nH]1 [Tozasertib] (partner 0.1 µM)
Method in brief: (§1)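 Lung cancer cell lines in 1536-well plates were dosed by pin tool the day after seeding, either with one drug alone or with a fixed anchor-drug dose plus five library-drug doses (not always all listed) in √10 steps. After 5 days, cells were fixed and their nuclei stained in one step (final 0.05% Triton X-100, 1% formaldehyde, 1 ug/ml Hoechst), then counted on 4× images. Relative viability is the nuclei count in treated wells divided by that in vehicle wells. Values are medians of duplicate plates.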

[2] = compound: CC1=NN=C(O1)C2=NN=C(C=C2)N3CCC(CC3)OC4=C(C=CC(=C4)F)Cl + CCNC(=O)c1noc(-c2cc(C(C)C)c(O)cc2O)c1-c1ccc(CN2CCOCC2)cc1 [Luminespib] (partner 0.01 µM)
Method in brief: as §1

Tosedostat + Vorinostat = compound: CC(C)C[C@@H](C(=O)N[C@H](C(=O)OC1CCCC1)c1ccccc1)[C@H](O)C(=O)NO [Tosedostat] + O=C(CCCCCCC(=O)Nc1ccccc1)NO [Vorinostat] (partner 1 µM)
Method in brief: as §1

[3] = compound: CC1=NN=C(O1)C2=NN=C(C=C2)N3CCC(CC3)OC4=C(C=CC(=C4)F)Cl + O=C(c1cc(Cc2n[nH]c(=O)c3ccccc23)ccc1F)N1CCN(C(=O)C2CC2)CC1 [Olaparib] (partner 8 µM)
Method in brief: as §1

Cell Line	relative viability ([1]; first compound 0.8 µM)	relative viability ([1]; first compound 2.53 µM)	relative viability ([1]; first compound 8 µM)	relative viability ([2]; first compound 0.8 µM)	relative viability ([2]; first compound 2.53 µM)	relative viability ([2]; first compound 8 µM)	relative viability (Tosedostat + Vorinostat; first compound 0.02 µM)	relative viability (Tosedostat + Vorinostat; first compound 0.06325 µM)	relative viability (Tosedostat + Vorinostat; first compound 0.2 µM)	relative viability (Tosedostat + Vorinostat; first compound 0.6325 µM)	relative viability (Tosedostat + Vorinostat; first compound 2 µM)	relative viability ([3]; first compound 0.253 µM)	relative viability ([3]; first compound 0.8 µM)	relative viability ([3]; first compound 2.53 µM)	relative viability ([3]; first compound 8 µM)	relative viability ([1]; first compound 0.253 µM)	relative viability ([2]; first compound 0.253 µM)
NCI-H2347	0.447	0.579	0.497	0.433	0.421	0.459	0.496	0.451	0.681	0.498	0.575	0.49	0.49	0.552	0.44	–	–
NCI-H1651	0.66	0.567	0.571	0.749	0.685	0.692	0.564	0.609	0.548	0.556	0.472	0.165	0.162	0.17	0.162	0.58	0.738
NCI-H2342	0.411	0.417	0.404	0.528	0.484	0.476	0.851	0.79	0.75	0.702	0.843	0.305	0.309	0.369	0.363	0.356	0.501
NCI-H2009	0.39	0.376	0.353	0.565	0.539	0.523	0.808	0.659	0.736	0.633	0.645	0.363	0.39	0.421	0.375	0.372	0.596
ChaGo-K-1	0.226	0.226	0.214	0.532	0.56	0.541	0.803	0.754	0.771	0.717	0.62	0.298	0.255	0.354	0.28	0.258	0.426
PC-3 [JPC-3]	0.813	0.797	0.67	0.686	0.611	0.603	0.861	0.949	0.656	0.606	0.561	1	0.899	0.997	1.04	0.774	0.674
A549	–	–	–	–	–	–	–	–	–	–	–	0.235	0.0638	0.409	0.163	–	–
NCI-H1299	–	–	–	–	–	–	–	–	–	–	–	0.741	0.722	0.717	0.664	–	–
HCC-78	0.319	0.266	0.288	–	–	–	0.472	0.42	0.452	0.501	0.486	0.454	0.384	0.387	0.456	0.376	–
IA-LM	–	–	–	–	–	–	1.09	0.844	0.791	0.899	0.878	0.114	0.12	0.131	0.121	–	–
NCI-H1792	–	–	–	0.38	0.419	0.431	–	–	–	–	–	0.264	0.376	0.337	0.364	–	0.34
NCI-H1563	–	–	–	0.52	0.519	0.532	–	–	–	–	–	–	–	–	–	–	0.488
NCI-H1648	0.325	0.293	0.344	–	–	–	0.316	0.661	0.553	0.365	0.354	0.459	0.574	0.406	0.618	0.242	–
